The source of these data is patent publication US20260224761A1, “DUAL LABELLED COMPOUNDS TARGETING THE PROSTATE SPECIFIC MEMBRANE ANTIGEN” (priority 2023, published 2026).

The target of this test is T1, PSMA (Homo sapiens, UniProt Q04609).
T1 construct: using PSMA-expressing LNCaP cells and ([^125I]I-BA)EuK as standard radioligand; endogenous in cells; host or cells: LNCaP cells
As to the kind of experiment: Competitive binding experiments (IC50) using PSMA-expressing LNCaP cells and ([125I]I-BA)EuK as standard radioligand. The note with it: LNCaP cells; free mas3-chelator; novel compounds. As for the experimental part:
Competitive binding experiments (IC50) were carried out in accordance with an established protocol ([…]. et al., Eur. J. Nuc. Mol. Med. Imaging Res., 2014, 4, 63) using PSMA-expressing LNCaP cells and ([^125I]I-BA)EuK as standard radioligand.

Molecules are shown by their SMILES.

T1 sequence (Q04609 whole entry): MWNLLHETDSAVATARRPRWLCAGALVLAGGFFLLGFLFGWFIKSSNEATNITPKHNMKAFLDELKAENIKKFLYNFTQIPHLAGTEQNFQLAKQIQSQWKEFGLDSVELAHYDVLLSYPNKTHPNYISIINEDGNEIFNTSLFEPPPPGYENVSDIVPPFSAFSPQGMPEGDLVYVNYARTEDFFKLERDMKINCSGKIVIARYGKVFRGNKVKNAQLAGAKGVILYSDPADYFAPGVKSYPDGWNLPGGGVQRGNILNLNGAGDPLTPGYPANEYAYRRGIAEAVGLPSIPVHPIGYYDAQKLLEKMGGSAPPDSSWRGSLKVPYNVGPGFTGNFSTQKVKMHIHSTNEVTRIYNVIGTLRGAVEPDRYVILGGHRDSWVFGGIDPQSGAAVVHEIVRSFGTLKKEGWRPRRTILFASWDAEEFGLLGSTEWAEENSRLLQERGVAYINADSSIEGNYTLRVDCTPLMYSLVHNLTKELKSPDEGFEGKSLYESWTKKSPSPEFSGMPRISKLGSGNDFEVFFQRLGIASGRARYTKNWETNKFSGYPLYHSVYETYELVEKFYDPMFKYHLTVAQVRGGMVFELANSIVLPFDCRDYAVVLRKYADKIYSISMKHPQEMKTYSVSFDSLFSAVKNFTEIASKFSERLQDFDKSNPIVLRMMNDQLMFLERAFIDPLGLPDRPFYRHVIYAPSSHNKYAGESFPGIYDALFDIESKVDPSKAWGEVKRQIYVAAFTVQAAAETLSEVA

Turning to `CC(=O)SCC(=O)N[C@H](CO)C(=O)N[C@H](CO)C(=O)N[C@H](CO)C(=O)N[C@H](CCCCNC(=O)CCCCCN1\C(=C/C=C/C=C/C2=[N+](C)c3ccc(S(=O)(=O)O)cc3C2(C)C)C(C)(C)c2cc(S(=O)(=O)O)ccc21)C(=O)N[C@H](Cc1ccc(O)cc1)C(=O)N[C@H](Cc1ccc2ccccc2c1)C(=O)N[C@H](CCCCNC(=O)CCCCCCC(=O)NCCCC[C@H](NC(=O)N[C@@H](CCC(=O)O)C(=O)O)C(=O)O)C(=O)O` [PSMA-HSG, Ac-mas3-k(Sulfo-Cy5)-γ-nal-k-Sub-EuK], the IC50 came out at 29.6 ± 5.6 nM.
